Measurements published in BindingDB's records for doi:10.1016/j.bmcl.2018.04.050 (Abbvie, 2018).

Columns and labels:
[1] = Binding affinity to thrombin cleavable N-terminal 6His tagged and 13C-IVLM labeled human KDM4A tandem TUDOR domain (897 to 1011 residues) expressed in Escherichia coli BL21(DE3)-T1R assessed as apparent Kd for H3(1-10)K4me3 peptide at 2.5 mM by ITC method (Rvb = 5.2 +/- 0.3 uM)
[2] = Binding affinity to thrombin cleavable N-terminal 6His tagged and 13C-IVLM labeled human KDM4A tandem TUDOR domain (897 to 1011 residues) expressed in Escherichia coli BL21(DE3)-T1R assessed as apparent Kd for H3(1-10)K4me3 peptide at 1 mM by ITC method (Rvb = 5.2 +/- 0.3 uM)
[3] = Binding affinity to thrombin cleavable N-terminal 6His tagged and 13C-IVLM labeled human KDM4A tandem TUDOR domain (897 to 1011 residues) expressed in Escherichia coli BL21(DE3)-T1R assessed as apparent Kd for H3(1-10)K4me3 peptide at 0.5 mM by ITC method (Rvb = 5.2 +/- 0.3 uM)

Kd [1]: 55.1 µM
Kd [2]: 22.7 µM
Kd [3]: 15.5 µM
Compound: CN(C)C[C@H]1C2CCC(c3ccccc3)(C2)[C@H]1O (stereo partly drawn)
